This note sets out measurements from patent US20080051429A1, “USE OF 4-AMINO-PIPERIDINES FOR TREATING SLEEP DISORDERS” (priority 2006, published 2008).

The assay addresses T1, 5-HT2A receptor (Homo sapiens, UniProt P28223).
T1 construct: expressed in transfected cells; host or cells: NIH3T3 cells, pSI expression vector
The experiment in a line: R-SAT functional receptor assay. The following applies: for Emax: 120 h. Type of assay: cell-based. As to the method:
The functional receptor assay, Receptor Selection and Amplification Technology (R-SAT), was used (with minor modifications from that previously described U.S. Pat. No. 5,707,798) to screen compounds for efficacy at the 5-HT2A receptor. Briefly, NIH3T3 cells were grown in 96 well tissue culture plates to 70-80% confluence. Cells were transfected for 12-16 hours with plasmid DNAs using superfect (Qiagen Inc.) as per manufacture's protocols. R-SAT's were generally performed with 50 ng/well of receptor and 20 ng/well of Beta-galactosidase plasmid DNA. All receptor and G-protein constructs used were in the pSI mammalian expression vector (Promega Inc) as described in U.S. Pat. No. 5,707,798. The 5HT2A receptor gene was amplified by nested PCR from brain cDNA using the oligodeoxynucleotides based on the published sequence (see Saltzman et. al. Biochem. Biophys. Res. Comm. 181:1469-78 (1991)). Large-scale transfections, cells were transfected for 12-16 hours, then trypsinized and frozen in DMSO. Frozen cells were later thawed, plated at 10,000-40,000 cells per well of a 96 well plate that contained drug. With both methods, cells were then grown in a humidified atmosphere with 5% ambient CO2 for five days. Media was then removed from the plates and marker gene activity was measured by the addition of the beta-galactosidase substrate ONPG (in PBS with 5% NP-40). The resulting colorimetric reaction was measured in a spectrophotometric plate reader (Titertek Inc.)at […]. All data were analyzed using the computer program XLFit (IDBSm). Efficacy is the percent maximal repression compared to repression by a control compound (ritanserin in the case of 5HT2A). pIC50 is the negative of the log(IC50), where IC50 is the calculated concentration in Molar that produces 50% maximal repression.
Briefly, the 5-HT2A receptor, and the alpha subunit of the guanine nucleotide binding protein Gq were transiently transfected into NIH3T3 cells and assayed using the functional receptor assay, Receptor Selection and Amplification Technology (R-SAT) essentially as disclosed in U.S. Pat. No. 5,707,798. Each compound was screened at seven serially diluted concentrations in triplicate. Data were analyzed using least squares fit analysis with GraphPad Prism (San Diego, Calif.), and are reported normalized to percent response.
R-SAT assays (as described in Example 42) were carried out with cells transfected with receptors (listed below) to determine the receptor selectivity profile for compound 26HCH16D. 5HT2A inverse agonist data (IC50 nM; % efficacy) were derived from detailed dose response curves (7 points in triplicate).
The functional receptor assay, Receptor Selection and Amplification Technology (R-SAT), was used (with minor modifications from that previously described U.S. Pat. No. 5,707,798) to screen compounds for efficacy at the 5-HT2A receptor. The RSAT assay was conducted as described herein.
The functional receptor assay, Receptor Selection and Amplification Technology (R-SAT), was used (with minor modifications from that previously described U.S. Pat. No. 5,707,798, which is incorporated herein by reference in its entirety) to screen compounds for efficacy at the 5-HT2A receptor. The RSAT assay was conducted as described herein.

The mark [1] stands for this setting: read-out: Percent Efficacy, compared to ritanserin.
Where [2] appears, read: Table 3, read-out: pIC50 (converted).

Where two headings read alike, the source gives them in different places.

T1 sequence (P28223 whole entry): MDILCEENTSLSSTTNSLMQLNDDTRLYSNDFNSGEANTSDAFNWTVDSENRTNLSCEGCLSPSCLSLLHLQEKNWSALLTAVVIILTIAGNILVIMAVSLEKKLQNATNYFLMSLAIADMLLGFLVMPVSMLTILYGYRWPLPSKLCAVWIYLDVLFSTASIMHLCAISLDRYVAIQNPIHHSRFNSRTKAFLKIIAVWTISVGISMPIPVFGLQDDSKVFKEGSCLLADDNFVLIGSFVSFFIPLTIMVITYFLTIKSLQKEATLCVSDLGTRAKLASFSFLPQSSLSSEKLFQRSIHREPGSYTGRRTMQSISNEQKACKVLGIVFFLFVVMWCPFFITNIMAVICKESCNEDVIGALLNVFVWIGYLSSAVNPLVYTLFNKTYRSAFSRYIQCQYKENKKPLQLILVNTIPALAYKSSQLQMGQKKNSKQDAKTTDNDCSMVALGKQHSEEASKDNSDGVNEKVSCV

`CCN1CCC(N(Cc2ccc(C)cc2)C(=O)Cc2ccc(Cl)cc2)CC1` [Example 47AKU-12, 2-(4-Chlorophenyl)-N-(4-methylbenzyl)-N-(1-ethylpiperidin-4-yl)acetamide]: the Emax under setting [1] was determined as 112%. The IC50 under setting [2] is 7.94 nM.
As for `COc1ccc(CC(=O)N(Cc2ccc(C)cc2)C2CCN(C3CCC3)CC2)cc1` [Example 47AKU-20, 2-(4-Methoxyphenyl)-N-(4-methylbenzyl)-N-(1-cyclobutylpiperidin-4-yl)acetamide], the Emax under setting [1] was determined as 120%. The IC50 under setting [2] was 10 nM.
Regarding `COc1ccc(CC(=O)N(Cc2ccc(C)cc2)C2CC3CCC(C2)N3C)cc1` (centres unmarked) [Example 47AKU-21, 2-(4-Methoxyphenyl)-N-(4-methylbenzyl)-N-(8-methyl-8-aza-bicyclo[3.2.1]oct-3-yl)-acetamide], where the note is “read-out: Percent Efficacy”, the Emax amounted to 117%. In addition, the IC50 (pIC50, Table 3) was 12.6 nM.
Consider `Cc1ccc(CN(C(=O)NCc2ccccc2)C2CCN(C)CC2)cc1` [Example 47AKU-22, N-(4-Methylbenzyl)-N-(1-methylpiperidin-4-yl)-N′-benzyl-carbamide], for which, under setting [1], the Emax turned out to be 117%. The IC50 under setting [2] is 12.6 nM.
Take `COc1ccc(CNC(=O)N(Cc2ccc(C)cc2)C2CCN(C)CC2)cc1` [Example 47AKU-44, N-(4-Methylbenzyl)-N-(1-methylpiperidin-4-yl)-N′-(4-methoxybenzyl)-carbamide]: under setting [1], the Emax was determined as 112%. In addition, the IC50 under setting [2] is 3.16 nM.
Taken in the same sequence, the figures for `COc1ccc(CC(=O)N(Cc2ccc(F)cc2)C2CCN(C)CC2)cc1` [Example 50ELH8, 2-(4-Methoxyphenyl)-N-(4-fluorobenzyl)-N-(1-methylpiperidin-4-yl)acetamide] were 129% and 15.8 nM.
As to `COc1ccc(CC(=O)N(CCCc2ccccc2)C2CCN(C)CC2)cc1` [Example 50ELH65, 2-(4-Methoxyphenyl)-N-(3-phenyl-1-propyl)-N-(1-methylpiperidin-4-yl)acetamide], the Emax under setting [1] amounted to 92%. The IC50 under setting [2] is 12.6 nM.
Taken in the same sequence, the figures for `COc1ccc(CC(=O)N(CCc2ccc(C)cc2)C2CCN(C)CC2)cc1` [Example 50ELH68, 2-(4-Methoxyphenyl)-N-[2-(4-methylphenyl)ethyl)-N-(1-methylpiperidin-4-yl)acetamide] were 96% and 3.98 nM.
On to `COc1ccc(CC(=O)N(Cc2ccc(C)cc2)C2CCN(CCCn3c(=O)[nH]c4ccccc43)CC2)cc1` [Example 50ELH89, 2-(4-Methoxyphenyl)-N-(4-methylbenzyl)-N-(1-(3-(1,3-dihydro-2H-benzimidazol-2-one-1-yl)propyl)piperidine-4-yl)acetamide], for which the Emax (read-out: Percent Efficacy) worked out at 111%. The IC50 (pIC50, Table 3) was 0.2 nM.
As to `COc1ccc(CC(=O)N(CCc2ccc(F)cc2)C2CCN(C)CC2)cc1` [Example 50ELH93A, 2-(4-Methoxyphenyl)-N-(2-4-(fluorophenyl)ethyl)-N-(1-methylpiperidin-4-yl)acetamide], the Emax under setting [1] was determined as 106%. Besides, the IC50 under setting [2] is 2 nM.
Taken in the same sequence, the figures for `COc1ccc(CC(=O)N(CCc2cccc(Cl)c2)C2CCN(C)CC2)cc1` [Example 50ELH93E, 2-(4-Methoxyphenyl)-N-[2-(3-chlorophenyl)ethyl]-N-(1-methylpiperidin-4-yl)acetamide] were 72% and 7.94 nM.
In the same order, the values of `COc1ccc(CCN(C(=O)Cc2ccc(OC)cc2)C2CCN(C)CC2)cc1` [Example 50ELH95B, 2-(4-Methoxyphenyl)-N-[2-(4-methoxyphenyl)ethyl]-N-(1-methylpiperidin-4-yl)acetamide] are 119% and 10 nM.
For `COc1ccc(CC(=O)N(Cc2ccc(C)cc2)C2CCN(C)CC2)cc1O` [Example 57MBT12B, N-((4-methylphenyl)methyl)-N-(1-methylpiperidin-4-yl)-2-(3-hydroxy-4-methoxyphenyl)acetamide], the Emax under setting [1] worked out at 75%. Moreover, the IC50 under setting [2] is 20 nM.
